In this assay the test system is P388 leukemia ip, CD2F1 mice, survival T/C. The experiment in a line: NCI In Vivo Anticancer Drug Screen. Data for tumor model P388 Leukemia (intraperitoneal) in CD2F1 (CDF1) mice. The following applies: endpoint: median survival time, higher = longer survival. In short, it runs like this: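 Mice carrying the transplanted tumor received test compound or vehicle. Survival was recorded in each group, and the value is the treated-group measurement divided by that of the vehicle-treated control group.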

[1] abbreviates: dose: 100.0 mg/kg/injection, schedule: Q01DX009 (ip), vehicle: saline with Tween-80.
[2] abbreviates: dose: 25.0 mg/kg/injection, schedule: Q04DX002 (ip), vehicle: saline with Tween-80.

Molecules are shown by their SMILES. Where “and” joins values, the source holds several entries; their conditions need not be identical. Equal entries are not always repeated. Toxic doses and inconclusive results are not listed.

As for `O=C(OCc1ccccc1)C(=O)c1c(O)n(-c2ccccc2)c2ccccc12`, the T/C was 99 % of control (dose: 100.0 mg/kg/injection, schedule: Q04DX002 (ip), vehicle: saline + alcohol); 100 % of control (dose: 200.0 mg/kg/injection, schedule: Q04DX002 (ip), vehicle: saline + alcohol); 96 % of control (dose: 400.0 mg/kg/injection, schedule: Q04DX002 (ip), vehicle: saline + alcohol).

With `CCOC(=O)C(c1ccccc1)C(CC=C(C)C)(C(C)=O)C(=O)OC` (stereo unspecified), the T/C (dose: 100.0 mg/kg/injection, schedule: Q04DX002 (ip), vehicle: saline with Tween-80) was 103 % of control; the T/C (dose: 200.0 mg/kg/injection, schedule: Q04DX002 (ip), vehicle: saline with Tween-80) was 103 % of control; the T/C (dose: 400.0 mg/kg/injection, schedule: Q04DX002 (ip), vehicle: saline with Tween-80) is 105 % of control.

`CC(=O)OCC12CCC(C)=CC1OC1C(N3CCOCC3)C(O)C2(C)C12CO2` (stereo unspecified): the T/C is, setting by setting: (dose: 0.62 mg/kg/injection, schedule: Q04DX002 (ip), vehicle: water) 123 % of control; (dose: 1.25 mg/kg/injection, schedule: Q04DX002 (ip), vehicle: water) 123 % of control; (dose: 2.5 mg/kg/injection, schedule: Q04DX002 (ip), vehicle: water) 123 % of control.

As for `O=[N+]([O-])c1cccc(C(O)C=C(C(F)(F)F)C(F)(F)F)c1` (stereo unspecified), the T/C is 100 % of control (dose: 25.0 mg/kg/injection, schedule: Q01DX009 (ip), vehicle: saline with Tween-80); 100 % of control (dose: 25.0 mg/kg/injection, schedule: Q04DX003 (ip), vehicle: saline); 109 % of control (dose: 33.0 mg/kg/injection, schedule: Q01DX009 (ip), vehicle: saline with Tween-80); 113 % of control (dose: 50.0 mg/kg/injection, schedule: Q01DX009 (ip), vehicle: saline with Tween-80); 95 % of control (dose: 50.0 mg/kg/injection, schedule: Q04DX003 (ip), vehicle: saline); 113 % of control (dose: 75.0 mg/kg/injection, schedule: Q01DX009 (ip), vehicle: saline with Tween-80). The T/C is 113 % of control under setting [1] and 100 % of control (dose: 100.0 mg/kg/injection, schedule: Q04DX003 (ip), vehicle: saline).

With `c1ccc2sc(CN(Cc3nc4ccccc4s3)Cc3nc4ccccc4s3)nc2c1`, the T/C by setting is: (dose: 50.0 mg/kg/injection, schedule: Q01DX005 (ip), vehicle: saline with Tween-80) 103 % of control; (dose: 100.0 mg/kg/injection, schedule: Q01DX005 (ip), vehicle: saline with Tween-80) 101 % of control; (dose: 200.0 mg/kg/injection, schedule: Q01DX005 (ip), vehicle: saline with Tween-80) 100 % of control.

Consider `CCCCN=C(N)N/N=C(\C)c1ccc2c(c1)Cc1ccccc1-2`, for which the T/C under setting [2] was 104 % of control.

As to `N=C(N)c1ccc(Oc2ccc(Oc3ccc(C(=N)N)cc3)cc2)cc1`, the T/C is, setting by setting: (dose: 3.13 mg/kg/injection, schedule: Q01DX009 (ip), vehicle: saline with Tween-80) 109 % of control; (dose: 3.13 mg/kg/injection, schedule: Q01DX009 (ip), vehicle: saline) 102 % of control; (dose: 6.25 mg/kg/injection, schedule: Q01DX009 (ip), vehicle: saline with Tween-80) 109 % of control; (dose: 6.25 mg/kg/injection, schedule: Q01DX009 (ip), vehicle: saline) 113 % of control; (dose: 12.5 mg/kg/injection, schedule: Q01DX009 (ip), vehicle: saline with Tween-80) 124 % of control.

Take `Fc1ccc(CN2COc3c(ccc4cccnc34)C2)cc1`: the T/C is 96 % of control (dose: 100.0 mg/kg/injection, schedule: Q04DX003 (ip), vehicle: Klucel (hydroxypropylcellulose) (HPC)); 97 % of control (dose: 200.0 mg/kg/injection, schedule: Q04DX003 (ip), vehicle: Klucel (hydroxypropylcellulose) (HPC)); 94 % of control (dose: 400.0 mg/kg/injection, schedule: Q04DX003 (ip), vehicle: Klucel (hydroxypropylcellulose) (HPC)).

For the compound `CC1CC(O)C(O)(c2ccccc2)CC1C` (stereo unspecified), the T/C is 104 % of control (dose: 100.0 mg/kg/injection, schedule: Q01DX001 (ip), vehicle: Klucel (hydroxypropylcellulose) (HPC)); 101 % of control (dose: 200.0 mg/kg/injection, schedule: Q01DX001 (ip), vehicle: Klucel (hydroxypropylcellulose) (HPC)); 99 % of control (dose: 400.0 mg/kg/injection, schedule: Q01DX001 (ip), vehicle: Klucel (hydroxypropylcellulose) (HPC)).

For the compound `CN=C(N)NN=C(c1ccc(Cl)cc1)c1ccc(Cl)cc1`, the T/C (dose: 6.25 mg/kg/injection, schedule: Q04DX002 (ip), vehicle: saline with Tween-80) is 101 % of control; the T/C (dose: 12.5 mg/kg/injection, schedule: Q04DX002 (ip), vehicle: saline with Tween-80) was 102 % of control; the T/C under setting [2] was 158 % of control.

`CC(=O)OCC1=COC(OC(=O)CC(C)(C)OC(C)=O)C2C1=CC(OC(=O)CC(C)C)[C@@]21CO1` (stereo partly specified): the T/C is, setting by setting: (dose: 10.0 mg/kg/injection, schedule: Q01DX005 (ip), vehicle: saline) 97 % of control; (dose: 20.0 mg/kg/injection, schedule: Q01DX005 (ip), vehicle: saline) 93 % of control; (dose: 40.0 mg/kg/injection, schedule: Q01DX005 (ip), vehicle: saline) 99 % of control.

Consider `Nc1ccc([N+](=O)[O-])cc1Nc1c2ccccc2nc2ccccc12`, for which the T/C runs as follows: (dose: 50.0 mg/kg/injection, schedule: Q01DX009 (ip), vehicle: Klucel (hydroxypropylcellulose) (HPC)) 108 % of control; (dose: 100.0 mg/kg/injection, schedule: Q01DX009 (ip), vehicle: Klucel (hydroxypropylcellulose) (HPC)) 107 % of control.

With `COC1=Nc2ccccc2N2CCN=C12`, the T/C is 86 % of control (dose: 12.5 mg/kg/injection, schedule: Q01DX009 (ip), vehicle: saline); 100 % of control (dose: 25.0 mg/kg/injection, schedule: Q01DX009 (ip), vehicle: saline); 100 % of control (dose: 50.0 mg/kg/injection, schedule: Q01DX009 (ip), vehicle: saline).

With `Cc1c(C)c2c(c(C)c1O)CCC(C)(CCCC(C)CCCC(C)CCCC(C)C)O2` (stereo unspecified), the T/C was 104 % of control (dose: 42.5 mg/kg/injection, schedule: Q01DX001 (ip), vehicle: olive oil, sesame oil, peanut oil); 106 % of control (dose: 50.0 mg/kg/injection, schedule: Q01DX009 (ip), vehicle: olive oil, sesame oil, peanut oil); 98 % of control (dose: 85.0 mg/kg/injection, schedule: Q01DX001 (ip), vehicle: olive oil, sesame oil, peanut oil); 100 % of control (dose: 100.0 mg/kg/injection, schedule: Q01DX009 (ip), vehicle: olive oil, sesame oil, peanut oil); 100 % of control under setting [1]; 100 % of control (dose: 100.0 mg/kg/injection, schedule: Q04DX003 (ip), vehicle: saline with Tween-80). The T/C (dose: 170.0 mg/kg/injection, schedule: Q01DX001 (ip), vehicle: olive oil, sesame oil, peanut oil) is 100 % of control and 97 % of control; the T/C (dose: 200.0 mg/kg/injection, schedule: Q01DX009 (ip), vehicle: olive oil, sesame oil, peanut oil) is 103 % of control; the T/C (dose: 200.0 mg/kg/injection, schedule: Q01DX009 (ip), vehicle: saline with Tween-80) was 104 % of control; the T/C (dose: 200.0 mg/kg/injection, schedule: Q04DX003 (ip), vehicle: saline with Tween-80) is 100 % of control; the T/C (dose: 340.0 mg/kg/injection, schedule: Q01DX001 (ip), vehicle: olive oil, sesame oil, peanut oil) is 91 % of control; the T/C (dose: 400.0 mg/kg/injection, schedule: Q01DX009 (ip), vehicle: Klucel (hydroxypropylcellulose) (HPC)) was 102 % of control. Besides, the T/C by setting is: (dose: 400.0 mg/kg/injection, schedule: Q01DX009 (ip), vehicle: saline with Tween-80) 100 % of control; (dose: 400.0 mg/kg/injection, schedule: Q04DX003 (ip), vehicle: saline with Tween-80) 87 % of control; (dose: 800.0 mg/kg/injection, schedule: Q01DX009 (ip), vehicle: Klucel (hydroxypropylcellulose) (HPC)) 101 % of control; (dose: 1200.0 mg/kg/injection, schedule: Q01DX009 (ip), vehicle: Klucel (hydroxypropylcellulose) (HPC)) 106 % of control; (dose: 1600.0 mg/kg/injection, schedule: Q01DX009 (ip), vehicle: Klucel (hydroxypropylcellulose) (HPC)) 113 % of control; (dose: 42.5 IU/animal/injection, schedule: Q01DX001 (ip), vehicle: olive oil, sesame oil, peanut oil) 102 % of control and 110 % of control. The T/C (dose: 85.0 IU/animal/injection, schedule: Q01DX001 (ip), vehicle: olive oil, sesame oil, peanut oil) was 102 % of control and 105 % of control and 107 % of control; the T/C (dose: 170.0 IU/animal/injection, schedule: Q01DX001 (ip), vehicle: olive oil, sesame oil, peanut oil) is 101 % of control and 113 % of control (2×); the T/C (dose: 340.0 IU/animal/injection, schedule: Q01DX001 (ip), vehicle: olive oil, sesame oil, peanut oil) was 102 % of control and 104 % of control.

On to `CC(=O)Nc1ccc(S(=O)(=O)/C(=C/c2ccc(-c3ccc(Br)cc3)o2)c2ccc([N+](=O)[O-])o2)cc1`, for which the T/C (dose: 50.0 mg/kg/injection, schedule: Q01DX009 (ip), vehicle: suspension in saline) was 86 % of control and the T/C (dose: 100.0 mg/kg/injection, schedule: Q01DX009 (ip), vehicle: suspension in saline) is 104 % of control.

(Values after PubChem BioAssay AID330 (DTP/NCI, 2004).)
